This is an account of results in US20210323913A1, “SIGMA RECEPTOR BINDERS” (BOARD OF REGENTS, THE UNIVERSITY OF TEXAS SYSTEM, priority 2016, published 2021).

One experiment concerns the target sigma 1 receptor (Homo sapiens, UniProt Q99720). In words: Sigma 1 receptor radioligand competition binding. (In a radioligand displacement assay an active substance lowers the binding of a labelled ligand.)
The target of another experiment is sigma 2 receptor (Homo sapiens, UniProt Q5BJF2). Description: Sigma 2 receptor radioligand competition binding. The note with it: for Ki ratio Sig1R/Sig2R: ratio of Sig1R Ki to Sig2R Ki.
The target in a further experiment is H1 (Homo sapiens, UniProt P35367). In words: Radioligand competition binding, H1. The note with it: Table 5; Cheng-Prusoff from best fit IC50.
The mark [1] stands for this setting: Table 1, 7-piperazinyl-tetrahydronaphthalene analogs, read-out: Ki (nM) Sig1R.
Where [2] appears, read: Table 1, 7-piperazinyl-tetrahydronaphthalene analogs, read-out: Ki (nM) Sig2R.
The mark [3] stands for this setting: Table 2, piperazinyl-tetrahydronaphthalene analogs, read-out: Ki (nM) Sig1R.
Where [4] appears, read: Table 2, piperazinyl-tetrahydronaphthalene analogs, read-out: Ki (nM) Sig2R.

The structures appear in SMILES notation. Like-named read-outs stand apart in the source and are kept apart here.

sigma 1 receptor, sequence (Q99720 whole entry, species assumed): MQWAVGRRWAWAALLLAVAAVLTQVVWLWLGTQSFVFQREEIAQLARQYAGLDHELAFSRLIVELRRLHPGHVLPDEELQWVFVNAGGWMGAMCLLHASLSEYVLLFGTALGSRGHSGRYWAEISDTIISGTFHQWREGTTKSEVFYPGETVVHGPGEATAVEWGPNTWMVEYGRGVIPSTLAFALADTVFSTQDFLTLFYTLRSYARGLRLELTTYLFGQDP
sigma 2 receptor, sequence (Q5BJF2 whole entry, species assumed): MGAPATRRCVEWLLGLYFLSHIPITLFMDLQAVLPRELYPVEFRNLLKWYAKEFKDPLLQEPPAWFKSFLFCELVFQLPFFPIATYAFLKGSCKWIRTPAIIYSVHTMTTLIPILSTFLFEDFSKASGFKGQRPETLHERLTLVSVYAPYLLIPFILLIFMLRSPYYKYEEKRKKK
H1, sequence (P35367 whole entry): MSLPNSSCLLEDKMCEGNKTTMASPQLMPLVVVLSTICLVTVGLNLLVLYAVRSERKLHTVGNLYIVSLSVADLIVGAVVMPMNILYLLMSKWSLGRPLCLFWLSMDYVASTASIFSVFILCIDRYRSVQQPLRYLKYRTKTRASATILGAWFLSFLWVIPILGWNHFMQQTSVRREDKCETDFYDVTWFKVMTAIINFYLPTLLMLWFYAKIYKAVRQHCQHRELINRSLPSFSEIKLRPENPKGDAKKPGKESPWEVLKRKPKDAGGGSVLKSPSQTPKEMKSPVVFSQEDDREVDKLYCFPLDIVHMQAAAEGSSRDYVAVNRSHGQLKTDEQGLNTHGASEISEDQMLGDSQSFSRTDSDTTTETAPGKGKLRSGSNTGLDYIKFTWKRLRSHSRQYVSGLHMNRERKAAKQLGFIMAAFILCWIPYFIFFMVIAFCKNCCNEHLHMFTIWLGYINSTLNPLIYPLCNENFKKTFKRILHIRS

Usually Ki stands for a dissociation constant, usually derived from enzyme kinetics or from competition with a known ligand. As to `CCCN1CCN(c2ccc3c(c2)C(NC(=O)OCc2ccccc2)CCC3)CC1` (centres unmarked) [MDW-1-202, Benzyl (7-(4-propylpiperazin-1-yl)-1,2,3,4-tetrahydronaphthalen-1-yl)carbamate], the Ki came to 174 nM on sigma 1 receptor (setting [1]) and 56 nM on sigma 2 receptor (setting [2]). Further, at sigma 2 receptor (Table 1), the “Ki ratio Sig1R/Sig2R” value is recorded as 3.
Regarding `CCCN1CCN(c2cccc3c2CCCC3N(C)C(=O)OCc2ccccc2)CC1` (centres unmarked) [MDW-1-215, Benzyl methyl(5-(4-propylpiperazin-1-yl)-1,2,3,4-tetrahydronaphthalen-1-yl)carbamate], the Ki on sigma 1 receptor (setting [3]) was 12 nM; at sigma 2 receptor (setting [4]), 26 nM. For the same compound, on sigma 2 receptor (Table 2), the “Ki ratio Sig1R/Sig2R” value was found to be 0.5.
With `CN(Cc1ccccc1)C1CCCc2cc(N3CCOCC3)ccc21` (centres unmarked) [MDW-1-129, N-Benzyl-N-methyl-6-morpholino-1,2,3,4-tetrahydronaphthalen-1-amine], the inhibition constant (Ki) amounted to 223 nM at sigma 1 receptor (Table 5, Cheng-Prusoff from best fit IC50, read-out: Ki Sigma 1); 1170 nM on sigma 2 receptor (Table 5, Cheng-Prusoff from best fit IC50, read-out: Ki Sigma 2); 118 nM on H1.
For the compound `CCOC(=O)CCN1CCN(c2ccc3c(c2)C(NC(=O)OCc2ccccc2)CCC3)CC1` (centres unmarked) [MDW-1-206, Ethyl 3-(4-(8-(((benzyloxy)carbonyl)amino)-5,6,7,8-tetrahydronaphthalen-2-yl)piperazin-1-yl)propanoate], the Ki on sigma 1 receptor (setting [1]) worked out at 2260 nM; at sigma 2 receptor (setting [2]), 80 nM. For the same compound, the “Ki ratio Sig1R/Sig2R” value on sigma 2 receptor (Table 1) is 28.
On the same counts, the results for `CCCN1CCN(c2ccc3c(c2)C(N(CC)C(=O)OCc2ccccc2)CCC3)CC1` (centres unmarked) [MDW-1-195, Benzyl ethyl(7-(4-propylpiperazin-1-yl)-1,2,3,4-tetrahydronaphthalen-1-yl)carbamate] are 321 nM, 5 nM and 70.
Consider `CCOC(=O)CCN1CCN(c2ccc3c(c2)CCCC3N(C)C(=O)OCc2ccccc2)CC1` (centres unmarked) [MDW-1-207, Ethyl 3-(4-(5-(((benzyloxy)carbonyl)(methyl)amino)-5,6,7,8-tetrahydronaphthalen-2-yl)piperazin-1-yl)propanoate], for which the Ki was 647 nM at sigma 1 receptor (setting [3]) and 91 nM on sigma 2 receptor (setting [4]). For the same compound, on sigma 2 receptor (Table 2), the “Ki ratio Sig1R/Sig2R” value is reported as 7.
As for `CN(C(=O)OCc1ccccc1)C1CCCc2ccc(N3CCN(C4CCC4)CC3)cc21` (centres unmarked) [MDW-1-162, Benzyl (7-(4-cyclobutylpiperazin-1-yl)-1,2,3,4-tetrahydronaphthalen-1-yl)(methyl)carbamate], the values for the inhibitory constant (Ki) on sigma 1 receptor (setting [1]) and on sigma 2 receptor (setting [2]) were 266 nM and 12 nM, respectively. Further, at sigma 2 receptor (Table 1), the “Ki ratio Sig1R/Sig2R” value came out at 22.
The corresponding values for `COC(=O)CCN1CCN(c2ccc3c(c2)C(N(C)C(=O)OCc2ccccc2)CCC3)CC1` (centres unmarked) [MDW-1-166, Methyl 3-(4-(8-(((benzyloxy)carbonyl)(methyl)amino)-5,6,7,8-tetrahydronaphthalen-2-yl)piperazin-1-yl)propanoate] are 2860 nM, 43 nM and 67.
Consider `CN(C(=O)OCc1ccccc1)C1CCCc2ccc(N3CCN(C4CCCCC4)CC3)cc21` (centres unmarked) [MDW-1-205, Benzyl (7-(4-cyclohexylpiperazin-1-yl)-1,2,3,4-tetrahydronaphthalen-1-yl)(methyl)carbamate], for which the Ki on sigma 1 receptor (setting [1]) was 16 nM; at sigma 2 receptor (setting [2]), 2 nM. The “Ki ratio Sig1R/Sig2R” value at sigma 2 receptor (Table 1) was determined as 8.
As for `CCOC(=O)CN1CCN(c2ccc3c(c2)C(N(C)C(=O)OCc2ccccc2)CCC3)CC1` (centres unmarked) [MDW-1-169, Ethyl 2-(4-(8-(((benzyloxy)carbonyl)(methyl)amino)-5,6,7,8-tetrahydronaphthalen-2-yl)piperazin-1-yl)acetate], the inhibitory constant (Ki) is greater than 10000 nM at sigma 1 receptor (setting [1]) and 894 nM on sigma 2 receptor (setting [2]).
In the case of `CCCN1CCN(c2ccc3c(c2)CCCC3N(C)C(=O)OCc2ccccc2)CC1` (centres unmarked) [MDW-1-204, Benzyl methyl(6-(4-propylpiperazin-1-yl)-1,2,3,4-tetrahydronaphthalen-1-yl)carbamate], the inhibitory constant (Ki) at sigma 1 receptor (setting [3]) is 40 nM; at sigma 2 receptor (setting [4]) it was 13 nM. The “Ki ratio Sig1R/Sig2R” value on sigma 2 receptor (Table 2) is given as 3.
`CCOC(=O)CCN1CCN(c2cccc3c2CCCC3N(C)C(=O)OCc2ccccc2)CC1` (centres unmarked) [MDW-1-214, Ethyl 3-(4-(5-(((benzyloxy)carbonyl)(methyl)amino)-5,6,7,8-tetrahydronaphthalen-1-yl)piperazin-1-yl)propanoate]: the Ki was found to be 303 nM on sigma 1 receptor (setting [3]) and 34 nM at sigma 2 receptor (setting [4]). The “Ki ratio Sig1R/Sig2R” value on sigma 2 receptor (Table 2) was determined as 9.
`CCCN1CCN(c2ccc3c(c2)C(OC(=O)CCc2ccccc2)CCC3)CC1` (centres unmarked) [MDW-1-290, 7-(4-Propylpiperazin-1-yl)-1,2,3,4-tetrahydronaphthalen-1-yl 3-phenylpropanoate]: the Ki on sigma 1 receptor (setting [1]) was 33 nM; at sigma 2 receptor (setting [2]), 25 nM. Further, at sigma 2 receptor (Table 1), the “Ki ratio Sig1R/Sig2R” value is reported as 1.
For the compound `CN1CCN(c2ccc3c(c2)C(N(C)C(=O)OCc2ccccc2)CCC3)CC1` (centres unmarked) [MDW-1-93, Benzyl methyl(7-(4-methylpiperazin-1-yl)-1,2,3,4-tetrahydronaphthalen-1-yl)carbamate], the Ki on sigma 1 receptor (setting [1]) turned out to be 2940 nM; on sigma 2 receptor (setting [2]), 284 nM. Further, the “Ki ratio Sig1R/Sig2R” value at sigma 2 receptor (Table 1) worked out at 10.
In the case of `CCN1CCN(c2ccc3c(c2)C(N(C)C(=O)OCc2ccccc2)CCC3)CC1` (centres unmarked) [MDW-1-161, Benzyl (7-(4-ethylpiperazin-1-yl)-1,2,3,4-tetrahydronaphthalen-1-yl)(methyl)carbamate], the Ki at sigma 1 receptor (setting [1]) amounted to 887 nM; at sigma 2 receptor (setting [2]), 35 nM. For the same compound, on sigma 2 receptor (Table 1), the “Ki ratio Sig1R/Sig2R” value was found to be 25.
Consider `CC(C)N1CCN(c2ccc3c(c2)C(N(C)C(=O)OCc2ccccc2)CCC3)CC1` (centres unmarked) [MDW-1-167, Benzyl (7-(4-isopropylpiperazin-1-yl)-1,2,3,4-tetrahydronaphthalen-1-yl)(methyl)carbamate], for which the inhibition constant Ki at sigma 1 receptor (setting [1]) is 223 nM; at sigma 2 receptor (setting [2]), 8 nM. Also, the “Ki ratio Sig1R/Sig2R” value at sigma 2 receptor (Table 1) is 27.
With `CCOC(=O)CCN1CCN(c2ccc3c(c2)C(N(CC)C(=O)OCc2ccccc2)CCC3)CC1` (centres unmarked) [MDW-1-190, Ethyl 3-(4-(8-(((benzyloxy)carbonyl)(ethyl)amino)-5,6,7,8-tetrahydronaphthalen-2-yl)piperazin-1-yl)propanoate], the Ki on sigma 1 receptor (setting [1]) came to 3320 nM; at sigma 2 receptor (setting [2]) it was 20 nM. Moreover, the “Ki ratio Sig1R/Sig2R” value at sigma 2 receptor (Table 1) is recorded as 166.
